From publication PMC10418599, “Quercetins, Chlorogenic Acids and Their Colon Metabolites Inhibit Colon Cancer Cell Proliferation at Physiologically Relevant Concentrations” (International Journal of Molecular Sciences, 2023)

How the values were obtained:
[1] = test system: SW480 cell line; experiment: Cell metabolism of phenolic compounds (UHPLC-HR-MS analysis of cell media); format: in vitro ADME, Human; conditions: for Concentration of substrate in cell medium: initial 50 μmol/L
Description: To analyze the metabolism of phenolic compounds by Caco-2 and SW480 cells, the cell culture media were withdrawn after 0, 24, 48 and 72 h of incubation. Phenolic compounds were extracted from the culture media by following the procedure reported in Sala et al.. Briefly, 100 μL of cold methanol was mixed with 100 μL of cell media and vortexed for 1 min. The mixture was then centrifuged at 10,000× g (4 °C, 5 min) and the supernatant was injected, after appropriate dilution, in an ultra-high-performance liquid chromatography high-resolution mass spectrometry system (UHPLC-HR-MS).
The HR-MS system consisted of a UHPLC Ultimate 3000 separation module, equipped with a C18 column (Acquity UPLC HSS C18 reversed phase, 2.1 × 100 mm, 1.8 μm particle size, Waters, Milan, Italy) and coupled with a Q Exactive Hybrid Quadrupole-Orbitrap Mass Spectrometer (Thermo Scientific, San Jose, CA, USA). Mobile phases consisted of a mixture of water containing formic acid (0.1%) (mobile phase A) and acetonitrile containing formic acid (0.1%) (mobile phase B). The gradient began at 1% B, reaching 40% B over 20 min. To wash the column, the mobile phase B concentration was raised to 99% over 6 min and kept at 99% for 3 min before returning to the initial conditions. The MS and MS/MS conditions are fully described in Martini et al..
Quantification was carried out by building external calibration curves with the available standard compounds.

[2] = test system: SW480 cell line; experiment: Anti-proliferative assay (MTS cell proliferation assay); format: cell-based, Human; conditions: for IC50: maximum tested concentration 200 μmol/L
Description: Human colon cancer Caco-2 and SW480 cell lines were cultured and grown as previously reported. […] Incubation was carried out for 24, 48 and 72 h. Data were compared with a control solution containing 0.5% DMSO in cell medium and representing 100% proliferation. In addition, six different mixes were prepared to simulate the simultaneous presence of parent phenolic compounds and metabolites by mimicking the possible human inter-individual variability in colon metabolism of phenolic compounds. Two sets of mixes were prepared to consider the colon metabolism of quercetins and chlorogenic acids. […] For each set of mixtures (QUE and CGA mixtures), three different mixes were formulated. One set of mixes mimicked the low-producers metabotype and contained 90% parent compounds and 10% metabolites (mixes QUE-LP and CGA-LP). Another set of mixes was prepared to simulate the high-producers metabotype and contained 10% parent compounds and 90% metabolites (mixes QUE-HP and CGA-HP). Finally, a third set of mixes was prepared with equimolar amounts of all the compounds (mixes QUE-EQ and CGA-EQ). […] Cell proliferation was assessed by the MTS assay as previously described. […] The IC50 values were calculated through non-linear regression analysis by plotting the base-10 logarithm of the phenolic compound concentration vs. the percentage of inhibition.

[3] = SW480, 24 h, substrate 3,5-di-O-Caffeoylquinic acid 50 μmol/L
[4] = SW480, 48 h, substrate 3,5-di-O-Caffeoylquinic acid 50 μmol/L
[5] = SW480, 72 h, substrate 3,5-di-O-Caffeoylquinic acid 50 μmol/L
[6] = SW480, 24 h, substrate 3-O-Caffeoylquinic acid trans 50 μmol/L
[7] = SW480, 24 h, substrate 5-O-Caffeoylquinic acid trans 50 μmol/L
[8] = SW480, 48 h, substrate 5-O-Caffeoylquinic acid trans 50 μmol/L
[9] = SW480, 72 h, substrate 3-O-Caffeoylquinic acid trans 50 μmol/L
[10] = SW480, 72 h, substrate 5-O-Caffeoylquinic acid trans 50 μmol/L
[11] = SW480, 48 h, substrate 3-O-Caffeoylquinic acid trans 50 μmol/L
[12] = SW480, 24 h, substrate Quercetin 50 μmol/L
[13] = SW480, 48 h, substrate Quercetin 50 μmol/L
[14] = SW480, 48 h, substrate Quercetin-3-O-glucoside-4′-O-glucoside 50 μmol/L
[15] = SW480, 48 h, substrate Quercetin-4′-O-glucoside 50 μmol/L
[16] = SW480, 72 h, substrate Quercetin 50 μmol/L
[17] = SW480, 72 h, substrate Quercetin-3-O-glucoside-4′-O-glucoside 50 μmol/L
[18] = SW480, 72 h, substrate Quercetin-4′-O-glucoside 50 μmol/L

SMILES: O=C(/C=C/c1ccc(O)c(O)c1)OC1CC(OC(=O)/C=C/c2ccc(O)c(O)c2)(C(=O)O)CC(O)C1O (stereo not drawn) [1,3-di-O-Caffeoylquinic acid]
- Concentration of newly formed metabolite [1, 3]: 8970 ± 40 nM
- Concentration of newly formed metabolite [1, 4]: 8870 ± 50 nM
- Concentration of newly formed metabolite [1, 5]: 10980 ± 20 nM

SMILES: O=C(/C=C/c1ccc(O)c(O)c1)OC1C(O)CC(OC(=O)/C=C/c2ccc(O)c(O)c2)(C(=O)O)CC1O (stereo not drawn) [1,4-di-O-Caffeoylquinic acid]
- Concentration of newly formed metabolite [1, 3]: 910 ± 30 nM
- Concentration of newly formed metabolite [1, 4]: 660 ± 30 nM
- Concentration of newly formed metabolite [1, 5]: 550 ± 10 nM

SMILES: O=C(/C=C/c1ccc(O)c(O)c1)OC1CC(O)(C(=O)O)CC(O)C1OC(=O)/C=C/c1ccc(O)c(O)c1 (stereo not drawn) [3,4-di-O-Caffeoylquinic acid]
- Concentration of newly formed metabolite [1, 3]: 10120 ± 100 nM
- Concentration of newly formed metabolite [1, 4]: 8040 ± 140 nM
- Concentration of newly formed metabolite [1, 5]: 9050 ± 150 nM

SMILES: O=C(/C=C/c1ccc(O)c(O)c1)O[C@@H]1C[C@](O)(C(=O)O)C[C@@H](O)[C@H]1O [3-O-Caffeoylquinic acid cis, 3-O-Caffeoylquinic acid]
- Concentration of newly formed metabolite [1, 6]: 4720 ± 40 nM
- Concentration of newly formed metabolite [1, 7]: 410 ± 50 nM
- Concentration of newly formed metabolite [1, 8]: 360 ± 40 nM
- Concentration of newly formed metabolite [1, 9]: 3270 ± 170 nM
- Concentration of newly formed metabolite [1, 10]: 720 ± 30 nM

SMILES: O=C(/C=C/c1ccc(O)c(O)c1)O[C@@H]1C[C@](O)(C(=O)O)C[C@@H](O)[C@H]1O [3-O-Caffeoylquinic acid, 3-O-caffeoylquinic acid]
- Percentage of inhibition of SW480 growth ([2]; 100 μmol/L, 72 h): 29.6%
- IC50 ([2]; SW480, 48 h of incubation): > 200 µM
- IC50 ([2]; SW480, 72 h of incubation): > 200 µM
- Concentration of substrate in cell medium ([1]; SW480, 24 h, listed as 3-O-Caffeoylquinic acid trans): 23340 ± 70 nM
- Concentration of newly formed metabolite ([1]; SW480, 24 h, substrate 3,5-di-O-Caffeoylquinic acid 50 μmol/L, listed as 3-O-Caffeoylquinic acid trans): 90 ± 10 nM
- Concentration of substrate in cell medium ([1]; SW480, 48 h, listed as 3-O-Caffeoylquinic acid trans): 19540 ± 70 nM
- Concentration of newly formed metabolite ([1]; SW480, 48 h, substrate 3,5-di-O-Caffeoylquinic acid 50 μmol/L, listed as 3-O-Caffeoylquinic acid trans): 130 ± 10 nM
- Concentration of newly formed metabolite ([1]; SW480, 48 h, substrate 5-O-Caffeoylquinic acid trans 50 μmol/L, listed as 3-O-Caffeoylquinic acid trans): 5140 ± 70 nM
- Concentration of substrate in cell medium ([1]; SW480, 72 h, listed as 3-O-Caffeoylquinic acid trans): 19830 ± 50 nM
- Concentration of newly formed metabolite ([1]; SW480, 72 h, substrate 5-O-Caffeoylquinic acid trans 50 μmol/L, listed as 3-O-Caffeoylquinic acid trans): 5550 ± 90 nM

SMILES: COc1cc(/C=C/C(=O)OC2CC(O)(C(=O)O)CC(O)C2O)ccc1O (stereo not drawn) [3-O-Feruloylquinic acid]
- Concentration of newly formed metabolite [1, 6]: 80 ± 0 nM
- Concentration of newly formed metabolite [1, 7]: 60 ± 0 nM
- Concentration of newly formed metabolite [1, 11]: 120 ± 0 nM
- Concentration of newly formed metabolite [1, 8]: 70 ± 0 nM
- Concentration of newly formed metabolite [1, 9]: 170 ± 0 nM
- Concentration of newly formed metabolite [1, 10]: 50 ± 0 nM

SMILES: O=C(/C=C/c1ccc(O)c(O)c1)O[C@@H]1[C@H](O)C[C@@](O)(C(=O)O)C[C@H]1OC(=O)/C=C/c1ccc(O)c(O)c1 [4,5-di-O-Caffeoylquinic acid]
- Concentration of newly formed metabolite [1, 3]: 3300 ± 50 nM
- Concentration of newly formed metabolite [1, 4]: 2200 ± 20 nM
- Concentration of newly formed metabolite [1, 5]: 1710 ± 30 nM

SMILES: O=C(/C=C/c1ccc(O)c(O)c1)OC1[C@H](O)CC(O)(C(=O)O)C[C@H]1O (stereo partly drawn) [4-O-Caffeoylquinic acid trans, 4-O-Caffeoylquinic acid]
- Concentration of newly formed metabolite [1, 3]: 70 ± 10 nM
- Concentration of newly formed metabolite [1, 6]: 6890 ± 60 nM
- Concentration of newly formed metabolite [1, 7]: 12690 ± 120 nM
- Concentration of newly formed metabolite [1, 4]: 120 ± 10 nM
- Concentration of newly formed metabolite [1, 11]: 8070 ± 240 nM
- Concentration of newly formed metabolite [1, 8]: 14800 ± 90 nM
- Concentration of newly formed metabolite [1, 5]: 250 ± 10 nM
- Concentration of newly formed metabolite [1, 9]: 12020 ± 240 nM
- Concentration of newly formed metabolite [1, 10]: 11930 ± 30 nM

SMILES: COc1cc(/C=C/C(=O)OC2C(O)CC(O)(C(=O)O)CC2O)ccc1O (stereo not drawn) [4-O-Feruloylquinic acid]
- Concentration of newly formed metabolite [1, 6]: 20 ± 0 nM
- Concentration of newly formed metabolite [1, 7]: 40 ± 0 nM
- Concentration of newly formed metabolite [1, 11]: 40 ± 0 nM
- Concentration of newly formed metabolite [1, 8]: 50 ± 0 nM
- Concentration of newly formed metabolite [1, 9]: 70 ± 0 nM
- Concentration of newly formed metabolite [1, 10]: 40 ± 0 nM

SMILES: COc1ccc(-c2oc3cc(O)cc(O)c3c(=O)c2O)cc1O [4′-O-methylquercetin]
- Concentration of newly formed metabolite [1, 12]: 970 ± 40 nM
- Concentration of newly formed metabolite [1, 13]: 1650 ± 40 nM
- Concentration of newly formed metabolite [1, 14]: 10 ± 0 nM
- Concentration of newly formed metabolite [1, 15]: 490 ± 10 nM
- Concentration of newly formed metabolite [1, 16]: 1830 ± 250 nM
- Concentration of newly formed metabolite [1, 17]: 10 ± 0 nM
- Concentration of newly formed metabolite [1, 18]: 710 ± 40 nM

SMILES: O=C(/C=C/c1ccc(O)c(O)c1)O[C@@H]1C[C@](O)(C(=O)O)C[C@@H](O)[C@H]1O [5-O-Caffeoylquinic acid cis, 5-O-Caffeoylquinic acid]
- Concentration of newly formed metabolite [1, 8]: 970 ± 50 nM
- Concentration of newly formed metabolite [1, 10]: 1420 ± 10 nM

SMILES: COc1cc(/C=C/C(=O)O[C@@H]2C[C@@](O)(C(=O)O)C[C@@H](O)[C@@H]2O)ccc1O [5-O-Feruloylquinic acid]
- Concentration of newly formed metabolite [1, 6]: 30 ± 0 nM
- Concentration of newly formed metabolite [1, 7]: 10 ± 0 nM
- Concentration of newly formed metabolite [1, 11]: 30 ± 0 nM
- Concentration of newly formed metabolite [1, 8]: 30 ± 0 nM
- Concentration of newly formed metabolite [1, 9]: 50 ± 0 nM
- Concentration of newly formed metabolite [1, 10]: 30 ± 0 nM

SMILES: O=C(O)/C=C/c1ccc(O)c(O)c1 [Caffeic acid]
- Concentration of newly formed metabolite [1, 6]: 440 ± 10 nM
- Concentration of newly formed metabolite [1, 11]: 430 ± 10 nM
- Concentration of newly formed metabolite [1, 8]: 80 ± 0 nM
- Concentration of newly formed metabolite [1, 5]: 1070 ± 10 nM
- Concentration of newly formed metabolite [1, 9]: 570 ± 10 nM
- Concentration of newly formed metabolite [1, 10]: 90 ± 10 nM

SMILES: COc1cc(/C=C/C(=O)O)ccc1O [Ferulic acid]
- Concentration of newly formed metabolite [1, 7]: 60 ± 20 nM
- Concentration of newly formed metabolite [1, 8]: 330 ± 10 nM
- Concentration of newly formed metabolite [1, 10]: 370 ± 10 nM

SMILES: COc1cc(-c2oc3cc(O)cc(O)c3c(=O)c2O)ccc1O [Isorhamnetin]
- Concentration of newly formed metabolite [1, 12]: 1610 ± 10 nM
- Concentration of newly formed metabolite [1, 13]: 3460 ± 80 nM
- Concentration of newly formed metabolite [1, 14]: 10 ± 0 nM
- Concentration of newly formed metabolite [1, 15]: 790 ± 30 nM
- Concentration of newly formed metabolite [1, 16]: 3760 ± 110 nM
- Concentration of newly formed metabolite [1, 17]: 10 ± 0 nM
- Concentration of newly formed metabolite [1, 18]: 1030 ± 40 nM

SMILES: O=c1c(O[C@@H]2O[C@H](CO)[C@@H](O)[C@H](O)[C@H]2O)c(-c2ccc(O[C@@H]3O[C@H](CO)[C@@H](O)[C@H](O)[C@H]3O)c(O)c2)oc2cc(O)cc(O)c12 [Quercetin-3-O-glucoside-4′-O-glucoside, quercetin-3-O-glucoside-4′-O-glucoside]
- IC50 ([2]; SW480, 48 h of incubation): > 200 µM
- IC50 ([2]; SW480, 72 h of incubation): ~200 µM

SMILES: O=c1c(O[C@@H]2O[C@H](CO)[C@@H](O)[C@H](O)[C@H]2O)c(-c2ccc(O)c(O)c2)oc2cc(O)cc(O)c12 [Quercetin-3-O-glucoside]
- Concentration of newly formed metabolite ([1]; SW480, 24 h, substrate Quercetin-3-O-glucoside-4′-O-glucoside 50 μmol/L): 3350 ± 10 nM
- Concentration of newly formed metabolite [1, 14]: 8940 ± 30 nM
- Concentration of newly formed metabolite [1, 17]: 9340 ± 50 nM
